Molecular target: T1, Peroxisome proliferator-activated receptor gamma (Homo sapiens, UniProt P37231)
T1 sequence (P37231 whole entry): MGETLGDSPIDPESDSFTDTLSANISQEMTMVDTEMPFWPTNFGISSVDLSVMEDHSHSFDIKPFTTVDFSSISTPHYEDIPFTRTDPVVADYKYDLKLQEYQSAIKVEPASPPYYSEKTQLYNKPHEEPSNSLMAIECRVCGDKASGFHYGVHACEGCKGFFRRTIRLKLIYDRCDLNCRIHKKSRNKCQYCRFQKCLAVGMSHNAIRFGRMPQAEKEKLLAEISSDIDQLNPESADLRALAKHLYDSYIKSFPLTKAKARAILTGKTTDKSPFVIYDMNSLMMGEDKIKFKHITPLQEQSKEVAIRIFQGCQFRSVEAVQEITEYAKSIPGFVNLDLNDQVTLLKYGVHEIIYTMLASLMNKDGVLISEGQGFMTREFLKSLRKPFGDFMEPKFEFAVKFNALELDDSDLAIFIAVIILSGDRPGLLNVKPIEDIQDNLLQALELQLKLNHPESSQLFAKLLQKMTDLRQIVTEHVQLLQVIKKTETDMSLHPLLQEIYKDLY
Assay: Binding affinity to GST-tagged human PPAR-gamma receptor by FRET assay; call rule not given here

SMILES | IC50 | IC50 (read-out: IC50)
O=C1NC(=O)C(=Cc2ccc(N(CCOCc3ccccc3)CCOC(c3ccccc3)(c3ccccc3)c3ccccc3)cc2)C(=O)N1 | Not Active | –
O=C1NC(=O)C(=Cc2ccc(N(CCO)CCOC(c3ccccc3)(c3ccccc3)c3ccccc3)cc2)C(=O)N1 | – | 22.2 µM
O=C1NC(=O)C(=Cc2ccc(N(CCOc3ccccn3)CCOc3ccccn3)cc2)C(=O)N1 | Not Active | –
COc1ccc(COCCN(CCOCc2ccccc2)c2ccc(C=C3C(=O)NC(=O)NC3=O)cc2)cc1 | – | 191 µM
N#Cc1ccc(OCCN(CCOc2ccc(C#N)cc2)c2ccc(C=C3C(=O)NC(=O)NC3=O)cc2)cc1 | – | 6.5 µM
O=C1NC(=O)C(=Cc2ccc(N(CCOc3ccc([N+](=O)[O-])cc3)CCOc3ccc([N+](=O)[O-])cc3)cc2)C(=O)N1 | – | 10.1 µM
COc1ccc(COCCN(CCOCc2ccc(OC)cc2)c2ccc(C=C3C(=O)NC(=O)NC3=O)cc2)cc1 | – | 59.1 µM
CC(=O)OCCN(CCOC(C)=O)c1ccc(C=C2C(=O)NC(=O)NC2=O)cc1 | Not Active | –
COc1ccc(COCCN(CCOc2ccccn2)c2ccc(C=C3C(=O)NC(=O)NC3=O)cc2)cc1 | – | 84 µM
COc1ccc(COCCN(CCOCc2ccc(Br)cc2)c2ccc(C=C3C(=O)NC(=O)NC3=O)cc2)cc1 | Not Active | –
COc1ccc(COCCN(CCOC(C)=O)c2ccc(C=C3C(=O)NC(=O)NC3=O)cc2)cc1 | Not Active | –
O=C1NC(=O)C(=Cc2ccc(N(CCOCc3ccc(F)cc3)CCOCc3ccc(F)cc3)cc2)C(=O)N1 | Not Active | –
CC(=O)OCCN(CCOCc1ccccc1)c1ccc(C=C2C(=O)NC(=O)NC2=O)cc1 | – | > 200 µM
O=C1NC(=O)C(=Cc2ccc(N(CCOCc3ccccc3)CCOCc3ccccc3)cc2)C(=O)N1 | – | 78.4 µM
O=C1NC(=O)C(=Cc2ccc(OCc3ccccc3)cc2)C(=O)N1 | – | 0.1 µM
